# Test results: article PMC10042540, “Targeting oncogenic KRasG13C with nucleotide-based covalent inhibitors” (eLife, 2023)
# Experiments:
# SOS = assay: Guanine nucleotide-exchange factor assay (mantdGDP fluorescence); type: biochemical; details: 5 µM KRas1-169, 10 µM mantdGDP, 0.25 or 0.5 µM SOS
# Method: SOS-catalysed nucleotide exchange was monitored at 25 °C in a FluoroMax-3 spectrofluorometer (excitation at 360 nm, emission at 440 nm) in 20 mM HEPES (pH 7.5), 100 mM NaCl, 2 mM MgCl2, and 1 mM TCEP. 5 µM KRas1-169 was mixed with 10 µM mantdGDP and subsequently with different concentrations of SOS (0.25 µM and 0.5 µM) (Figure 3A; Figure 3—figure supplement 1).
# [1] = test system: Ras pathway (pcRaf, pAkt, pErk, pS6); assay: Electroporation into HeLa cells, western blot of downstream signalling; type: cell-based, human; details: electroporation of 50-300 µg protein
# Method: (§1) HeLa cells were obtained from the American Type Culture Collection (ATCC) and were cultured in DMEM medium (Gibco) supplemented with 10% fetal bovine serum (FBS) (PAN-Biotech) and 1% penicillin/streptomycin (Gibco). Cells were cultured in a humidified incubator at 37 °C in the presence of 5% CO2. The identity of the cells was validated by STR profiling and the cells were tested negative for mycoplasma contamination.
# (§2) Electroporation of full-length KRas constructs (KRasWT, KRasG13C, KRasG13C-edaGDP, KRasG13C:acetyledaGDP and KRasG13C-edaGppCp) was performed based on the protocol described by [Alex et al., 2019] using the Neon Transfection System Kit (Thermo Fisher). For electroporation, 3 million cells per experiment were harvested by trypsinization, washed with PBS, and resuspended in 85 µL of the electroporation buffer R (Thermo Fisher). Increasing amounts of recombinant protein samples for each construct (0, 50, 100, 200 and 300 µg) were diluted 1:1 in buffer R followed by the addition of 30 µL of this protein master mix to the cell suspension. This cellular slurry was loaded into a […] Neon Pipette Tip (Thermo Fisher) and electroporated with 2x35 ms pulses at 1000 V. After electroporation, the cells were washed twice with PBS (15 mL) to remove non-internalized extracellular protein and the cell pellet was resuspended in 2 mL complete growth media. Cells were transferred into six-well tissue culture plates (Sarstedt) and incubated for 24 hr at 37 °C and 5% CO2 in a humidified incubator for recovery before being processed for western blotting analysis.
# After recovery of the electroporation, cells were washed twice with ice-cold PBS and lysed in 100 µL of phosphatase and protease inhibitor containing RIPA buffer (Cell Signaling Technology). Cells were incubated on ice for 30 min and then harvested by scraping followed by centrifugation at 14,000 rpm for 10 min at 4 °C. Protein concentrations were determined using the Pierce BCA protein assay (Thermo) following the manufacturer’s recommended procedure. Equal amounts of protein (10 µg) were analyzed by SDS-PAGE and transferred to Immobilon-FL PVDF membranes (Merck Millipore) using Pierce 1-step transfer buffer (Thermo) and the Pierce Power Blotter (Thermo). Membranes were washed with ddH2O for 5 min, blocked with OdysseyBlocking Buffer TBS (Li-Cor) for 1 hr at room temperature and then incubated with primary antibodies diluted in OdysseyBlocking Buffer TBS overnight at 4 °C with gentle agitation. […] Quantification of protein levels from western blots was performed using Empiria Studio (Li-Cor) (Figure 3B, C, Figure 3—figure supplements 6–9).
# pAktS473 = assay: Electroporation into HeLa cells, western blot quantification; type: cell-based, human; details: for pAkt mean fold change: mean of cell lysates
# Method: as §1, §2
# (§3) After recovery of the electroporation, cells were washed twice with ice-cold PBS and lysed in 100 µL of phosphatase and protease inhibitor containing RIPA buffer (Cell Signaling Technology). Cells were incubated on ice for 30 min and then harvested by scraping followed by centrifugation at 14,000 rpm for 10 min at 4 °C. Protein concentrations were determined using the Pierce BCA protein assay (Thermo) following the manufacturer’s recommended procedure. Equal amounts of protein (10 µg) were analyzed by SDS-PAGE and transferred to Immobilon-FL PVDF membranes (Merck Millipore) using Pierce 1-step transfer buffer (Thermo) and the Pierce Power Blotter (Thermo). Membranes were washed with ddH2O for 5 min, blocked with OdysseyBlocking Buffer TBS (Li-Cor) for 1 hr at room temperature and then incubated with primary antibodies diluted in OdysseyBlocking Buffer TBS overnight at 4 °C with gentle agitation. KRas (Sigma Aldrich, SAB1404011-100UG), pcRafS338 (CST, 9427), tAkt1 (CST, 2938), pAktS473 (CST, 4060), tErk (CST, 4696), pErkT202/Y204 (CST, 4370), pS6S235/236 (CST, 4858), and β-actin (CST, 4970/Sigma-Aldrich, A5441) antibodies were used to detect the individual proteins. After primary antibody incubation, membranes were washed three times with TBS-T (50 mM Tris, 150 mM NaCl, 0.05% Tween 20, pH 7.4) for 5 min before being incubated with secondary antibodies (anti-mouse IgG (H+L) (DyLight 680 Conjugate) (CST, 5470) / anti-rabbit IgG (H+L) (DyLight 800 4 X PEG Conjugate) (CST, 5151)) diluted in OdysseyBlocking Buffer TBS for 1 hr at room temperature with gentle agitation. After secondary antibody incubation, the membranes were washed three times for 5 min with TBS-T and then scanned using an OdysseyCLx imaging system (Li-Cor). Quantification of protein levels from western blots was performed using Empiria Studio (Li-Cor) (Figure 3B, C, Figure 3—figure supplements 6–9).
# pErkT202/Y204 = assay: as above; type: cell-based, human; details: for pErk mean fold change: mean of cell lysates
# Method: as §1, §2, §3
# pS6S235/236 = assay: as above; type: cell-based, human; details: for pS6 mean fold change: mean of cell lysates
# Method: as §1, §2, §3
# pcRafS338 = assay: as above; type: cell-based, human; details: for pcRaf mean fold change: mean of cell lysates
# Method: as §1, §2, §3
# tAkt1 = assay: as above; type: cell-based, human; details: for tAkt mean fold change: mean of cell lysates
# Method: as §1, §2, §3
# tErk = assay: as above; type: cell-based, human; details: for tErk mean fold change: mean of cell lysates
# Method: as §1, §2, §3
substance,measurement,setting,value
KRasG13C-edaGppCp: KRasG13C covalently modified with edaGppCp,SOS-catalysed nucleotide exchange,SOS,no SOS-catalysed nucleotide exchange was observed
same,"downstream signalling (pcRaf, pAkt, pErk, pS6)",[1],activation of the Ras pathway comparable to KRasG13C was observed
same,pAkt fold change,"pAktS473; 50 µg, Cell lysate 1",2.11
same,pAkt fold change,"pAktS473; 50 µg, Cell lysate 2",3.13
same,pAkt mean fold change,pAktS473; 50 µg,2.62
same,pAkt fold change,"pAktS473; 100 µg, Cell lysate 1",4.88
same,pAkt fold change,"pAktS473; 100 µg, Cell lysate 2",6.30
same,pAkt mean fold change,pAktS473; 100 µg,5.59
same,pAkt fold change,"pAktS473; 200 µg, Cell lysate 1",6.55
same,pAkt fold change,"pAktS473; 200 µg, Cell lysate 2",7.78
same,pAkt mean fold change,pAktS473; 200 µg,7.17
same,pAkt fold change,"pAktS473; 300 µg, Cell lysate 1",6.53
same,pAkt fold change,"pAktS473; 300 µg, Cell lysate 2",5.20
same,pAkt mean fold change,pAktS473; 300 µg,5.87
same,pErk fold change,"pErkT202/Y204; 50 µg, Cell lysate 1",4.72
same,pErk fold change,"pErkT202/Y204; 50 µg, Cell lysate 2",5.16
same,pErk mean fold change,pErkT202/Y204; 50 µg,4.94
same,pErk fold change,"pErkT202/Y204; 100 µg, Cell lysate 1",7.88
same,pErk fold change,"pErkT202/Y204; 100 µg, Cell lysate 2",4.30
same,pErk mean fold change,pErkT202/Y204; 100 µg,6.09
same,pErk fold change,"pErkT202/Y204; 200 µg, Cell lysate 1",7.25
same,pErk fold change,"pErkT202/Y204; 200 µg, Cell lysate 2",5.27
same,pErk mean fold change,pErkT202/Y204; 200 µg,6.26
same,pErk fold change,"pErkT202/Y204; 300 µg, Cell lysate 1",7.62
same,pErk fold change,"pErkT202/Y204; 300 µg, Cell lysate 2",5.84
same,pErk mean fold change,pErkT202/Y204; 300 µg,6.73
same,pS6 fold change,"pS6S235/236; 50 µg, Cell lysate 1",4.20
same,pS6 fold change,"pS6S235/236; 50 µg, Cell lysate 2",2.51
same,pS6 mean fold change,pS6S235/236; 50 µg,3.36
same,pS6 fold change,"pS6S235/236; 100 µg, Cell lysate 1",2.82
same,pS6 fold change,"pS6S235/236; 100 µg, Cell lysate 2",2.81
same,pS6 mean fold change,pS6S235/236; 100 µg,2.82
same,pS6 fold change,"pS6S235/236; 200 µg, Cell lysate 1",3.15
same,pS6 fold change,"pS6S235/236; 200 µg, Cell lysate 2",3.28
same,pS6 mean fold change,pS6S235/236; 200 µg,3.22
same,pS6 fold change,"pS6S235/236; 300 µg, Cell lysate 1",3.41
same,pS6 fold change,"pS6S235/236; 300 µg, Cell lysate 2",3.61
same,pS6 mean fold change,pS6S235/236; 300 µg,3.51
same,pcRaf fold change,"pcRafS338; 50 µg, Cell lysate 1",2.67
same,pcRaf fold change,"pcRafS338; 50 µg, Cell lysate 2",1.69
same,pcRaf mean fold change,pcRafS338; 50 µg,2.18
same,pcRaf fold change,"pcRafS338; 100 µg, Cell lysate 1",2.60
same,pcRaf fold change,"pcRafS338; 100 µg, Cell lysate 2",2.10
same,pcRaf mean fold change,pcRafS338; 100 µg,2.35
same,pcRaf fold change,"pcRafS338; 200 µg, Cell lysate 1",2.93
same,pcRaf fold change,"pcRafS338; 200 µg, Cell lysate 2",3.37
same,pcRaf mean fold change,pcRafS338; 200 µg,3.15
same,pcRaf fold change,"pcRafS338; 300 µg, Cell lysate 1",3.66
same,pcRaf fold change,"pcRafS338; 300 µg, Cell lysate 2",3.19
same,pcRaf mean fold change,pcRafS338; 300 µg,3.43
same,tAkt fold change,"tAkt1; 50 µg, Cell lysate 1",1.35
same,tAkt fold change,"tAkt1; 50 µg, Cell lysate 2",1.53
same,tAkt mean fold change,tAkt1; 50 µg,1.44
same,tAkt fold change,"tAkt1; 100 µg, Cell lysate 1",1.30
same,tAkt fold change,"tAkt1; 100 µg, Cell lysate 2",1.69
same,tAkt mean fold change,tAkt1; 100 µg,1.50
same,tAkt fold change,"tAkt1; 200 µg, Cell lysate 1",1.09
same,tAkt fold change,"tAkt1; 200 µg, Cell lysate 2",1.67
same,tAkt mean fold change,tAkt1; 200 µg,1.38
same,tAkt fold change,"tAkt1; 300 µg, Cell lysate 1",0.94
same,tAkt fold change,"tAkt1; 300 µg, Cell lysate 2",1.47
same,tAkt mean fold change,tAkt1; 300 µg,1.20
same,tErk fold change,"tErk; 50 µg, Cell lysate 1",1.12
same,tErk fold change,"tErk; 50 µg, Cell lysate 2",1.11
same,tErk mean fold change,tErk; 50 µg,1.12
same,tErk fold change,"tErk; 100 µg, Cell lysate 1",1.29
same,tErk fold change,"tErk; 100 µg, Cell lysate 2",1.14
same,tErk mean fold change,tErk; 100 µg,1.21
same,tErk fold change,"tErk; 200 µg, Cell lysate 1",1.21
same,tErk fold change,"tErk; 200 µg, Cell lysate 2",1.17
same,tErk mean fold change,tErk; 200 µg,1.19
same,tErk fold change,"tErk; 300 µg, Cell lysate 1",1.69
same,tErk fold change,"tErk; 300 µg, Cell lysate 2",1.50
same,tErk mean fold change,tErk; 300 µg,1.60
